Results from patent US20130157860A1, “METHOD OF CONTROLLING A WEED IN A GRAMINEOUS BIOMASS CROP” (SUMITOMO CHEMICAL COMPANY, LIMITED, priority 2011, published 2013).

How the values were obtained:
[1] = system: switchgrass, miscanthus, giant reed, reed canarygrass, blue stem, erianthus, napier grass, and spartina; experiment: Test Example 2: post-emergence application, phytotoxicity on biomass crops; assay type: in vivo
Method: (§1) A field soil is filled into a 32 cm×22 cm plastic case having a depth of 8 cm, seeds of switchgrass, miscanthus, giant reed, reed canarygrass, blue stem, erianthus, napier grass, spartina, Echinochloa crus-galli, Digitaria adscendens, Chenopodium album and Abutilon theophrasti are seeded thereon, and the seeds are covered with about 0.5 cm of a soil, and cultivated in a greenhouse for 2 weeks.

[2] = system: Echinochloa crus-galli, Digitaria adscendens, Chenopodium album and Abutilon theophrasti; experiment: Test Example 2: post-emergence application, herbicidal activity; assay type: in vivo; settings: post-emergence application after 2 weeks of cultivation, 25 to 1000 g per 1 hectare, greenhouse, evaluated 21 days after treatment
Method: as §1

[3] = system: Setaria faberi, Amaranthus retroflexus, Chenepodium album, and Stellaria media; experiment: Test Example 1: pre-emergence application, herbicidal activity; assay type: in vivo; settings: pre-emergence application to soil surface, 25 to 1000 g per 1 hectare, greenhouse, evaluated 21 days after treatment
[4] = system: switchgrass, miscanthus, giant reed, reed canarygrass, blue stem, erianthus, napier grass, and spartina; experiment: Test Example 1: pre-emergence application, phytotoxicity on biomass crops
Method: Pre-emergence application in switchgrass, miscanthus, giant reed, reed canarygrass, blue stem, erianthus, napier grass and spartina
A field soil is filled into a 32 cm×22 cm plastic case having a depth of 8 cm, seeds of switchgrass, miscanthus, giant reed, reed canarygrass, blue stem, erianthus, napier grass, spartina, Setaria faberi, Amaranthus retroflexus, Chenepodium album, and Stellaria media are seeded thereon, and the seeds are covered with about 0.5 cm of a soil.

[5] = post-emergence application after 2 weeks of cultivation, 25 to 1000 g per 1 hectare, greenhouse, evaluated 21 days after treatment
[6] = pre-emergence application to soil surface, 25 to 1000 g per 1 hectare, greenhouse, evaluated 21 days after treatment

SMILES	phytotoxicity [1, 5]	herbicidal activity [2]	herbicidal activity [3]	phytotoxicity [4, 6]	phytotoxicity ([1]; in vivo)	phytotoxicity ([4]; in vivo)
CCOc1cc(Oc2ccc(C(F)(F)F)cc2Cl)ccc1[N+](=O)[O-] [oxyfluorfen]	without causing a significant phytotoxicity	high herbicidal activity	high herbicidal activity	without causing significant phytotoxicity		
C#CCN1C(=O)COc2cc(F)c(-n3c(=O)n(C)c(=S)n(C)c3=O)cc21 [compound represented by the formula (I)]		high herbicidal activity	high herbicidal activity		without causing a significant phytotoxicity	without causing significant phytotoxicity
Cc1nn(-c2cc(NS(C)(=O)=O)c(Cl)cc2Cl)c(=O)n1C(F)F [sulfentrazone]		high herbicidal activity	high herbicidal activity		without causing a significant phytotoxicity	without causing significant phytotoxicity
C#CCN1C(=O)COc2cc(F)c(N3C(=O)C4=C(CCCC4)C3=O)cc21 [flumioxazin]	without causing a significant phytotoxicity	high herbicidal activity	high herbicidal activity	without causing significant phytotoxicity		
CS(=O)(=O)NC(=O)c1cc(Oc2ccc(C(F)(F)F)cc2Cl)ccc1[N+](=O)[O-] [fomesafen]		high herbicidal activity	high herbicidal activity	without causing significant phytotoxicity		
CC(C)N(C)S(=O)(=O)NC(=O)c1cc(-n2c(=O)cc(C(F)(F)F)n(C)c2=O)c(F)cc1Cl [saflufenacil]	without causing a significant phytotoxicity	high herbicidal activity	high herbicidal activity	without causing significant phytotoxicity		
